Experimental data reported in PubChem BioAssay AID2060623 (Molecular Pharmacology Branch, DTP, NCI, 2025).

System: 227483-062-R1-J1-PDC complex spheroids with HUVEC/MSC, viability
Test: Anticancer human tumor 227483-062-R1-J1-PDC patient-derived pancreatic carcinoma cell line growth inhibition [CLK]
Settings: for IC50: curve of first compound; for viability, T/C: stronger effect = lower value
Method in brief: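 Multi-cell-type spheroids combined patient-derived tumor cells with HUVEC endothelial cells and human mesenchymal stem cells. Paired agents were dosed in half-log steps down from about clinical Cmax, or from 10 microM where Cmax was unknown.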

[1] = second compound 0.0316 µM, first compound 0.0316 µM
[2] = second compound 0.0316 µM, first compound 0.1 µM
[3] = second compound 0.0316 µM, first compound 0.316 µM
[4] = second compound 0.0316 µM, first compound 1 µM
[5] = second compound 0.1 µM, first compound 0.0316 µM
[6] = second compound 0.1 µM, first compound 0.1 µM
[7] = second compound 0.1 µM, first compound 0.316 µM
[8] = second compound 0.1 µM, first compound 1 µM
[9] = second compound 0.316 µM, first compound 0.0316 µM
[10] = second compound 0.316 µM, first compound 0.1 µM
[11] = second compound 0.316 µM, first compound 0.316 µM
[12] = second compound 0.316 µM, first compound 1 µM
[13] = second compound 1 µM, first compound 0.0316 µM
[14] = second compound 1 µM, first compound 0.1 µM
[15] = second compound 1 µM, first compound 0.316 µM
[16] = second compound 1 µM, first compound 1 µM
[17] = second compound 3.16 µM, first compound 0.0316 µM
[18] = second compound 3.16 µM, first compound 0.1 µM
[19] = second compound 3.16 µM, first compound 0.316 µM
[20] = second compound 3.16 µM, first compound 1 µM
[21] = second compound 10 µM, first compound 0.0316 µM
[22] = second compound 10 µM, first compound 0.1 µM
[23] = second compound 10 µM, first compound 0.316 µM
[24] = second compound 10 µM, first compound 1 µM
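Note: spheroids exposed to compounds for seven days before readout.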
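Throughout, for viability, T/C: percent of DMSO vehicle control luminescence as 100% viability.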

CC(=O)O[C@H]1C(=O)[C@@]2(C)[C@H]([C@H](OC(=O)c3ccccc3)[C@]3(O)C[C@H](OC(=O)[C@H](O)[C@@H](NC(=O)c4ccccc4)c4ccccc4)C(C)=C1C3(C)C)[C@]1(OC(C)=O)CO[C@@H]1C[C@@H]2O + CNC(=O)c1ccc(Nc2nc(OC3CCCC3)c3c(-c4ccc5nc(C)oc5c4)c[nH]c3n2)c(OC)c1
IC50 (second compound 0.0316 µM): < 31.6 nM
IC50 (second compound 0.1 µM): > 10000 nM
IC50 (second compound 0.316 µM): > 10000 nM
IC50 (second compound 1 µM): > 10000 nM
IC50 (second compound 3.16 µM): < 31.6 nM
IC50 (second compound 10 µM): < 31.6 nM
viability, T/C [1]: 29.7%
viability, T/C [2]: 27.1%
viability, T/C [3]: 35.6%
viability, T/C [4]: 43.4%
viability, T/C (second compound 0.0316 µM, first compound 3.16 µM): 48.3%
viability, T/C (second compound 0.0316 µM, first compound 10 µM): 75.9%
viability, T/C [5]: 53.8%
viability, T/C [6]: 62.1%
viability, T/C [7]: 71.1%
viability, T/C [8]: 85.1%
viability, T/C (second compound 0.1 µM, first compound 3.16 µM): 77.1%
viability, T/C (second compound 0.1 µM, first compound 10 µM): 101%
viability, T/C [9]: 70.4%
viability, T/C [10]: 95.6%
viability, T/C [11]: 98.9%
viability, T/C [12]: 101%
viability, T/C (second compound 0.316 µM, first compound 3.16 µM): 99.3%
viability, T/C (second compound 0.316 µM, first compound 10 µM): 95.8%
viability, T/C [13]: 60.8%
viability, T/C [14]: 69.2%
viability, T/C [15]: 72.7%
viability, T/C [16]: 101%
viability, T/C (second compound 1 µM, first compound 3.16 µM): 96.7%
viability, T/C (second compound 1 µM, first compound 10 µM): 89.4%
viability, T/C [17]: 46.7%
viability, T/C [18]: 58.9%
viability, T/C [19]: 62.9%
viability, T/C [20]: 61.5%
viability, T/C (second compound 3.16 µM, first compound 3.16 µM): 70.1%
viability, T/C (second compound 3.16 µM, first compound 10 µM): 54.6%
viability, T/C [21]: 37.9%
viability, T/C [22]: 49.9%
viability, T/C [23]: 50.3%
viability, T/C [24]: 61.4%
viability, T/C (second compound 10 µM, first compound 3.16 µM): 49.5%
viability, T/C (second compound 10 µM, first compound 10 µM): 55.5%

CCc1c2c(nc3ccc(O)cc13)-c1cc3c(c(=O)n1C2)COC(=O)[C@]3(O)CC + CNC(=O)c1ccc(Nc2nc(OC3CCCC3)c3c(-c4ccc5nc(C)oc5c4)c[nH]c3n2)c(OC)c1
IC50 (second compound 0.0316 µM): 205 nM
IC50 (second compound 0.1 µM): 176 nM
IC50 (second compound 0.316 µM): 64 nM
IC50 (second compound 1 µM): 11.4 nM
IC50 (second compound 3.16 µM): < 3.16 nM
IC50 (second compound 10 µM): < 3.16 nM
viability, T/C (second compound 0.0316 µM, first compound 0.00316 µM): 121%
viability, T/C (second compound 0.0316 µM, first compound 0.01 µM): 96.1%
viability, T/C [1]: 81.2%
viability, T/C [2]: 60.5%
viability, T/C [3]: 41.5%
viability, T/C [4]: 32.5%
viability, T/C (second compound 0.1 µM, first compound 0.00316 µM): 111%
viability, T/C (second compound 0.1 µM, first compound 0.01 µM): 97.1%
viability, T/C [5]: 69.3%
viability, T/C [6]: 64.4%
viability, T/C [7]: 42.1%
viability, T/C [8]: 19.8%
viability, T/C (second compound 0.316 µM, first compound 0.00316 µM): 65.2%
viability, T/C (second compound 0.316 µM, first compound 0.01 µM): 84.3%
viability, T/C [9]: 62.2%
viability, T/C [10]: 37.8%
viability, T/C [11]: 24.1%
viability, T/C [12]: 5.82%
viability, T/C (second compound 1 µM, first compound 0.00316 µM): 61.2%
viability, T/C (second compound 1 µM, first compound 0.01 µM): 54%
viability, T/C [13]: 34.1%
viability, T/C [14]: 19.4%
viability, T/C [15]: 10.4%
viability, T/C [16]: 1.96%
viability, T/C (second compound 3.16 µM, first compound 0.00316 µM): 44%
viability, T/C (second compound 3.16 µM, first compound 0.01 µM): 35.2%
viability, T/C [17]: 24.2%
viability, T/C [18]: 12.6%
viability, T/C [19]: 7.58%
viability, T/C [20]: 2.02%
viability, T/C (second compound 10 µM, first compound 0.00316 µM): 33.4%
viability, T/C (second compound 10 µM, first compound 0.01 µM): 32.4%
viability, T/C [21]: 17.1%
viability, T/C [22]: 11.4%
viability, T/C [23]: 6.34%
viability, T/C [24]: 2.19%
